From US11744830B2, “Ameliorative agent for cytokine release syndrome and so on” (TORII PHARMACEUTICAL CO., LTD., priority 2018, dated 2023) come the findings set out here.

Structures can show the parent of a compound that is named as a salt. Where only a bound is given, the exact number is not on record here.

One test relates to MCP-1 production. The test is described as follows: CRS toxicity evaluation system using CAR-T cells: MCP-1. The format is cell-based, human. As to conditions: Homo sapiens, Monocyte; CAR-T cells, target cells and monocytes, 72 hours. As to the method:
(§1) The supernatants were collected at 72 hours after the initiation of culture, and various cytokines in each supernatant were measured by FACS multiplex assay.

For test [1], the system named is IL-6 production from PBMCs. The test is described as follows: LPS stimulation-induced IL-6 production in PBMCs. The format is cell-based. As to conditions: Homo sapiens, PBMC, 72 h, LPS 3 ng/mL, 3 days. As to the method: Cryopreserved PBMCs were quickly thawed in a 37° C. thermostat and added to a tube containing medium. After centrifugation (at room temperature at 300 g for 10 minutes) to remove the supernatant, the cells were suspended again in the medium (10 mL), followed by counting the number of viable cells. After centrifugation (at room temperature at 300 g for 10 minutes) to remove the supernatant, the medium was added to suspend the cells at 1×10^6 cells/mL. This cell suspension was seeded in a 96-well plate in a volume of 100 μL/well (1×10^5 cells/well). […] The cells were cultured in a CO2 incubator for 3 days to collect the culture supernatants.
(§2) The collected culture supernatants were quantified for IL-6 using Human IL-6 DuoSet ELISA.

For test [2], the system named is IL-6 production in CD4^+ T cell-depleted PBMCs. The test is described as follows: T-cell stimulation bead- and LPS stimulation-induced CRS toxicity evaluation system in CD4^+ T cell-depleted PBMCs: IL-6. The class given is cell-based, human. As to conditions: for IC50: Homo sapiens, 72 h, 3 days. As to the method:
(§3) Cryopreserved human PBMCs were quickly thawed in a 37° C. thermostat and added to a tube containing medium. After centrifugation (at room temperature at 300 g for 10 minutes) to remove the supernatant, the cells were suspended again in the medium (10 mL), followed by counting the number of viable cells. The remainder of the cell suspension was centrifuged (at room temperature at 300 g for 10 minutes) to remove the supernatant, followed by addition of MACS Buffer in a volume of 80 μL and Human CD4 MicroBeads in a volume of 20 μL per 1×10^7 cells to suspend the cells. After being allowed to stand on ice for 15 minutes, the cell suspension was diluted with MACS Buffer (2 mL) and centrifuged (at room temperature at 300 g for 10 minutes) to remove the supernatant. MACS Buffer (500 μL) was added to the tube, and the cells were suspended and then applied to a separatory column to separate CD4^− cells (a pass-through fraction of CD4^+ cells). The CD4^− cell fraction was diluted to 15 mL with the medium and then centrifuged (at room temperature at 300 g for 10 minutes) to remove the supernatant, and the cells were then suspended again in the medium (1 mL), followed by counting the number of viable cells. The cell suspension adjusted with the medium to 1×10^6 cells/mL was seeded in a 96-well plate in a volume of 100 μl/well (1×10^5 cells/well) and allowed to stand in a CO2 incubator for 1 to 2 hours.
(§4) The collected culture supernatants were quantified for IFN-γ and IL-6 using Human IFN-γ DuoSet ELISA and Human IL-6 DuoSet ELISA.

The next test relates to IL-6 production. The test is described as follows: CRS toxicity evaluation system using CAR-T cells: IL-6. The format is cell-based, human. As to conditions: for IC50: Homo sapiens, Monocyte, CAR-T cells, target cells and monocytes, 72 hours. The protocol:
as §1

Test [3] deals with IL-6 production from PBMCs. The test is described as follows: T-cell stimulation bead- and LPS stimulation-induced CRS toxicity evaluation system in PBMCs: IL-6. The class given is cell-based, human. As to conditions: CD3/CD28 + LPS; for IC50: Homo sapiens, PBMC, 72 h, 3 days. As to the method:
(§5) Cryopreserved PBMCs were quickly thawed in a 37° C. thermostat and added to a tube containing medium. After centrifugation (at room temperature at 300 g for 10 minutes) to remove the supernatant, the cells were suspended again in the medium (10 mL), followed by counting the number of viable cells. After centrifugation (at room temperature at 300 g for 10 minutes) to remove the supernatant, the medium was added to suspend the cells at 1×10^6 cells/mL. This cell suspension was seeded in a 96-well plate in a volume of 100 μl/well (1×10^5 cells/well) and allowed to stand in a CO2 incubator for 1 to 2 hours.
(§6) The cells were cultured in a CO2 incubator for 3 days to collect the culture supernatants.
as §4

The subject of a further test is IL-1β production. The test is described as follows: CRS toxicity evaluation system using CAR-T cells: IL-1β. As to conditions: for IC50: Homo sapiens, Monocyte, CAR-T cells, target cells and monocytes, 72 hours. The format is cell-based, human. As to the method: as §1
In the next test the test system is IL-8 production. The test is described as follows: CRS toxicity evaluation system using CAR-T cells: IL-8. The class given is cell-based, human. As to conditions: for IC50: Homo sapiens, Monocyte, CAR-T cells, target cells and monocytes, 72 hours. The protocol: as §1
Test [4] has as its system IL-6 production from CD14^+ cells. The test is described as follows: LPS stimulation-induced IL-6 production in CD14^+ cells. The class given is cell-based, human. As to conditions: for IC50: Homo sapiens, 72 h, CD14^+ cells, LPS 3 ng/mL, 3 days. The protocol:
(§7) Cryopreserved PBMCs were quickly thawed in a 37° C. thermostat and added to a tube containing medium. After centrifugation (at room temperature at 300 g for 10 minutes) to remove the supernatant, the cells were suspended again in the medium, followed by counting the number of viable cells. The cell suspension was centrifuged (at room temperature at 300 g for 10 minutes) to remove the supernatant, followed by addition of MACS Buffer to suspend the cells, to which Human CD14 MicroBeads were further added. After being allowed to stand on ice for 15 minutes, the cell suspension was diluted with MACS Buffer and centrifuged (at room temperature at 300 g for 10 minutes) to remove the supernatant.
(§8) MACS Buffer was added to the tube, and the cells were suspended and then applied to a separatory column to separate CD14^+ cells. The CD14^+ cell fraction was diluted with the medium and then centrifuged (at room temperature at 300 g for 10 minutes). The supernatant was removed and the cells were suspended in the medium (1 mL), followed by counting the number of viable cells. The cell suspension was adjusted with the medium to 2.4×10^5 or 3×10^5 cells/mL and seeded in a 96-well plate (2.4×10^4 cells/well), which was then allowed to stand in a CO2 incubator for 1 to 2 hours.
as §2

Test [5] deals with TNF-α production from CD14^+ cells. The test is described as follows: LPS stimulation-induced TNF-α production in CD14^+ cells. The format is cell-based, human. To be noted: for IC50: LPS 3 ng/mL, 3 days. As to the method:
as §7, §8
The culture supernatants collected in 1.2.2 were quantified for TNF-α using Human TNF-α DuoSet ELISA.

The test system of a further test is IL-18 production. The test is described as follows: CRS toxicity evaluation system using CAR-T cells: IL-18. To be noted: Homo sapiens, Monocyte, target cells and monocytes, 72 hours, reference data because of low production. The format is cell-based. The protocol:
as §1

Test [6] deals with IFN-γ production in CD4^+ T cell-depleted PBMCs. The test is described as follows: T-cell stimulation bead- and LPS stimulation-induced CRS toxicity evaluation system in CD4^+ T cell-depleted PBMCs: IFN-γ. The format is cell-based. As to conditions: Homo sapiens, 72 h, CD3/CD28 + LPS, 3 days. As to the method: as §3, with “The cell suspension adjusted with the medium to 1×10^6 cells/mL was seeded in a 96-well plate in a volume of 100 μl/well (1×10^5 cells/well) and allowed to stand in a CO2 incubator for 1 to 2 hours.” left out
as §4

The subject of test [7] is IFN-γ production from PBMCs. The test is described as follows: T-cell stimulation bead- and LPS stimulation-induced CRS toxicity evaluation system in PBMCs: IFN-γ. The class given is cell-based, human. As to conditions: for IC50: Homo sapiens, PBMC, 72 h, PBMCs, CD3/CD28 + LPS, 3 days. As to the method: as §5, §6, §4
The test system of test [8] is MCP-1 production from CD14^+ cells. The test is described as follows: LPS stimulation-induced MCP-1 production in CD14^+ cells. The class given is cell-based. As to conditions: Homo sapiens, 72 h, LPS 3 ng/mL, 3 days. As to the method:
as §7, §8
The collected culture supernatants were quantified for MCP-1 using Human CCL2/MCP-1 DuoSet ELISA.

The mark [9] stands for this setting: CRS toxicity evaluation system using CAR-T cells.

The term IC50 denotes the concentration that inhibits the measured activity by half. Regarding `CCOC(=O)[C@H](Cc1ccccc1)NC(=O)c1cc(Cl)c(OCCN2CCN(C)CC2)c(Cl)c1O` [JTE-607, (−)-ethyl N-{3,5-dichloro-2-hydroxy-4-[2-(4-methylpiperazin-1-yl)ethoxy]benzoyl}-L-phenylalaninate dihydrochloride], the half-maximal inhibitory concentration (IC50) was found to be 37.6 nM with MCP-1 production; 17.7 nM in test [1]; 42.2 nM in test [2] (CD3/CD28 + LPS); 188 nM in the test with IL-6 production; 40.4 nM in test [3]; 359 nM in the test with IL-1β production. Further, the 50% inhibitory concentration (IC50) in the test with IL-8 production was 154 nM; in test [4] it was 52.9 nM; in [5] (Homo sapiens, 72 h) it was above 300 nM; in the test on IL-18 production, 871 nM; in test [6], 80.9 nM; in [7], 50.1 nM. In test [8], this molecule returned an IC50 of 21.3 nM. The entries for the “Ratio (IL-6/IFN-γ) of IC50 values” in test [2] (CD3/CD28 + LPS), in test [3] and in test [4] (CD14^+ cells (IL-6) / CD8^+ T cells (IFN-γ)) were 0.52, 0.81 and below 0.18, respectively. The “suppressive effect on TNF-α production” value in [5] (LPS) is “suppressive effect in a manner dependent on its concentration added”.
In the case of `C[C@]12C=CC(=O)C=C1CC[C@@H]1[C@@H]2[C@@H](O)C[C@@]2(C)[C@H]1CC[C@]2(O)C(=O)CO` [PSL, Prednisolone], the half-inhibitory concentration (IC50) in the test with MCP-1 production was 71800 nM; in test [1], 176 nM; in test [2] (CD3/CD28 + LPS), above 30000 nM; with IL-6 production, above 10000 nM; in [3], 3570 nM; with IL-1β production, above 100000 nM. For the same molecule, the IC50 in the test on IL-8 production is above 100000 nM; in test [4], 151 nM; in test [5] (Homo sapiens, 72 h), 41.7 nM; in [5], 42 nM; with IL-18 production, above 100000 nM; in test [6] it was 42 nM. The IC50 in test [7] worked out at 53 nM; in [8], 6600 nM. The “suppression of IL-6 production” value in [2] (T-cell stimulation beads and LPS) was “did not suppress”. Besides, the “suppressive effect on IL-6 production” value in the test with IL-6 production (setting [9]) is reported as “no suppressive effect”. Also, in the test with IL-1β production (setting [9]), the “suppressive effect on IL-1β” value is “no suppressive effect”. For the same molecule, the “suppressive effect on IL-8 production” value in the test with IL-8 production (setting [9]) was “no suppressive effect”. Moreover, in test [7] (PBMCs co-stimulated with T-cell stimulation beads and LPS), the “suppression of IFN-γ production versus IL-6 production” value is “more strongly suppressed IFN-γ production than IL-6 production”.
